{"source": "patent US20090176731A1", "about": "(priority 2005, published 2009)", "key": {"Calu-6 tumour xenograft": {"test_system": "Calu-6 tumour xenograft", "experiment": "in vivo solid tumour model, Calu-6 tumour xenograft (WO 00/47212)", "conditions": "once-daily oral, 28 days"}, "HUVEC": {"test_system": "HUVEC", "experiment": "HUVEC assay, endothelial cell proliferation (WO 00/47212)", "format": "cell-based", "conditions": "Homo sapiens"}, "range of models": {"test_system": "range of models", "conditions": "once-daily oral administration; cited from earlier work"}}, "note": "Like-named read-outs stand apart in the source and are kept apart here."}
{"smiles": "COc1cc2c(Oc3ccc4[nH]c(C)cc4c3F)ncnc2cc1OCCCN1CCCC1", "note": "[AZD2171, 4-(4-fluoro-2-methyl-1H-indol-5-yloxy)-6-methoxy-7-(3-(pyrrolidin-1-yl)propoxy)quinazoline]", "values": [{"measurement": "inhibition of growth of Calu-6 tumour xenograft", "setting": "Calu-6 tumour xenograft; 1.5 mg/kg/day, P<0.01", "value": 49, "unit": "%"}, {"measurement": "inhibition of growth of Calu-6 tumour xenograft", "setting": "Calu-6 tumour xenograft; 3 mg/kg/day, P<0.00001", "value": 69, "unit": "%"}, {"measurement": "inhibition of growth of Calu-6 tumour xenograft", "setting": "Calu-6 tumour xenograft; 6 mg/kg/day, P<0.00001", "value": 91, "unit": "%"}, {"measurement": "IC50", "setting": "HUVEC; HUVEC, basal (unstimulated) proliferation, read-out: IC50 for inhibition of basal endothelial cell proliferation", "value": "> 500", "unit": "nM"}, {"measurement": "IC50", "setting": "HUVEC; VEGF-stimulated, HUVEC assay, read-out: IC50 for inhibition of VEGF-stimulated endothelial cell proliferation", "value": "0.4 ± 0.2", "unit": "nM"}, {"measurement": "anti-tumour activity in a range of models", "setting": "range of models", "value": "broad-spectrum anti-tumour activity"}]}
